Molecular target: human EP4 receptor (Homo sapiens (Human), UniProt P35408)
Test: Test for antagonism of the human EP4 receptor signal (cAMP HTRF)
Format: cell-based
Conditions: cells expressing hEP4, PGE2 at EC80 (0.4 nM), cAMP TR-FRET; read-out: Antagonism hEP4 IC50
From the text: The binding of the agonist prostaglandin E2 (PGE2) to the EP4 subtype of human hPGE2-R (hEP4-R) induces the activation of membrane-bound adenylate cyclases and thus the formation of cAMP. In the presence of the phosphodiesterase inhibitor IBMX, this cAMP accumulates intracellularly and is employed in a competitive detection procedure after cell lysis. In this procedure, it competes with a fluorescence-labelled cAMP (cAMP-d2) for binding to an Eu cryptate-labelled anti-cAMP antibody. In the absence of cellular cAMP, a complex is formed between the Eu cryptate-labelled anti-cAMP antibody and the cAMP-d2 molecule, which after excitation at 337 nm makes possible an energy transfer based on FRET (fluorescence resonance energy transfer) to the cAMP-d2 tracer and leads to a long-lasting fluorescence signal (emission at 665 and 620 nm). This signal is time-resolved, i.e. measured in a suitable measuring apparatus after decay of the background fluorescence (time resolved; TR-FRET). The wave ratio determination (emission 665 nm/emission 620 nm*10000) moreover makes it possible to standardize individual measurement differences in the added amounts of the detection reagents.
By means of prostaglandin E2 administration and increase in the intracellular cAMP, a lowering of the FRET signal occurs, which in the case of an antagonistic substance action increases again.
A further 20 min at room temperature later, the cell lysate is measured according to the manufacturer's instructions in a TR-FRET-suitable measuring apparatus (compare cAMP HTRF assay kit: Cisbio International 62AM6PEJ high range)

Sequence of human EP4 receptor (P35408 whole entry): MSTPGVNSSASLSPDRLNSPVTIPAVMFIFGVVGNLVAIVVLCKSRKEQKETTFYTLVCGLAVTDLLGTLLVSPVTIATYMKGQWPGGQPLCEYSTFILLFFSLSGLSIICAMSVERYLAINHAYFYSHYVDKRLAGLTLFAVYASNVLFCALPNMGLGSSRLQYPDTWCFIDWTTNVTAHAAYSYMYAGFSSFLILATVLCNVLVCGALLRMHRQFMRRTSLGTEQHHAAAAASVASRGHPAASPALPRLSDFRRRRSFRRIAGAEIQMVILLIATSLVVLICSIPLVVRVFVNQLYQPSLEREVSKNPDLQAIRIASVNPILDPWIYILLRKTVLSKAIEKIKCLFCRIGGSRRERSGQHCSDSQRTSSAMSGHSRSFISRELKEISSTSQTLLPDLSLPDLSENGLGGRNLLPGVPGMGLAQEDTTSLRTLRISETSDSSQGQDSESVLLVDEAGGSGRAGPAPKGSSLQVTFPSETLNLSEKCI

| SMILES | IC50 [µM] |
| --- | --- |
| CCn1c2ccccc2c2cc(-c3nc4cc(C(=O)O)ccc4n3CC3CC3)cnc21 [Example 14, 1-(Cyclopropylmethyl)-2-(9-ethyl-9H-pyrido[2,3-b]indol-3-yl)-1H-benzimidazole-5-carboxylic acid] | 0.0334 |
| CCn1c2ccccc2c2cc(-c3nc4cc(C(=O)O)ccc4n3CCC3CC3)ccc21 [Example 117, 1-(2-Cyclopropylethyl)-2-(9-ethyl-9H-carbazol-3-yl)-1H-benzimidazole-5-carboxylic acid] | 0.0221 |
| CCn1c2ccccc2c2cc(-c3nc4cc(C(=O)NS(=O)(=O)Cc5ccc(C(F)(F)F)cc5)ccc4n3CCOC)ccc21 [Example 62, 2-(9-Ethyl-9H-carbazol-3-yl)-1-(2-methoxyethyl)-N-{[4-(trifluoromethyl)benzyl]sulphonyl}-1H-benzimidazole-5-carboxamide] | 0.186 |
| CCn1c2ccccc2c2cc(-c3nc4cc(C(=O)O)ccc4n3CCS(C)(=O)=O)ccc21 [Example 136, 2-(9-Ethyl-9H-carbazol-3-yl)-1-[2-(methylsulphonyl)ethyl]-1H-benzimidazole-5-carboxylic acid] | 0.325 |
| COCCn1c(-c2ccc3c(c2)c2ccccc2n3CCOC)nc2cc(C(=O)O)ccc21 [Example 98, 1-(2-Methoxyethyl)-2-[9-(2-methoxyethyl)-9H-carbazol-3-yl]-1H-benzimidazole-5-carboxylic acid] | 0.112 |
| CCn1c2ccccc2c2cc(-c3nc4c(Cl)c(C(=O)O)ccc4n3CC3CC3)ccc21 [Example 8, 4-Chloro-1-(cyclopropylmethyl)-2-(9-ethyl-9H-carbazol-3-yl)-1H-benzimidazole-5-carboxylic acid] | 0.0197 |
| C=CCn1c2ccccc2c2cc(-c3nc4cc(C(=O)O)ccc4n3CCOC)ccc21 [Example 96, 2-(9-Allyl-9H-carbazol-3-yl)-1-(2-methoxyethyl)-1H-benzimidazole-5-carboxylic acid] | 0.0165 |
| CCn1c2ccccc2c2cc(-c3nc4cc(C(=O)O)c(F)cc4n3CC3CC3)ccc21 [Example 112, 1-(Cyclopropylmethyl)-2-(9-ethyl-9H-carbazol-3-yl)-6-fluoro-1H-benzimidazole-5-carboxylic acid] | 0.0346 |
| CCn1c2ccccc2c2cc(-c3nc4cc(C(N)=O)ccc4n3CC3CC3)ccc21 [Example 26, 1-(Cyclopropylmethyl)-2-(9-ethyl-9H-carbazol-3-yl)-1H-benzimidazole-5-carboxamide] | 0.176 |
| CCn1c2ccccc2c2cc(-c3nc4c(C)c(C(=O)O)ccc4n3CCOC)ccc21 [Example 105, 2-(9-Ethyl-9H-carbazol-3-yl)-1-(2-methoxyethyl)-4-methyl-1H-benzimidazole-5-carboxylic acid] | 0.0643 |
| CCn1c2ccccc2c2cc(-c3nc4cc(C(=O)NS(=O)(=O)CCc5ccccc5C)ccc4n3CCOC)ccc21 [Example 57, 2-(9-Ethyl-9H-carbazol-3-yl)-1-(2-methoxyethyl)-N-{[2-(2-methylphenyl)ethyl]sulphonyl}-1H-benzimidazole-5-carboxamide] | 0.239 |
| CCn1c2ccccc2c2cc(-c3nc4cc(C(=O)N5CCOCC5)ccc4n3CCOC)ccc21 [Example 81, [2-(9-Ethyl-9H-carbazol-3-yl)-1-(2-methoxyethyl)-1H-benzimidazol-5-yl](morpholin-4-yl)-methanone] | 0.123 |
| CCn1c2ccccc2c2cc(-c3nc4cc(C(=O)NCC(F)(F)F)ccc4n3CC3CC3)ccc21 [Example 27, 1-(Cyclopropylmethyl)-2-(9-ethyl-9H-carbazol-3-yl)-N-(2,2,2-trifluoroethyl)-1H-benzimidazole-5-carboxamide] | 0.117 |
| CCn1c2ccccc2c2cc(-c3nc4c(F)c(C(=O)O)ccc4n3CCOC)ccc21 [Example 114, 2-(9-Ethyl-9H-carbazol-3-yl)-4-fluoro-1-(2-methoxyethyl)-1H-benzimidazole-5-carboxylic acid] | 0.00642 |
| CCn1c2ccccc2c2cc(-c3nc4cc(-c5n[nH]c(=O)o5)ccc4n3CCN(C)C)ccc21 [Example 126, 5-{1-[2-(Dimethylamino)ethyl]-2-(9-ethyl-9H-carbazol-3-yl)-1H-benzimidazol-5-yl}-1,3,4-oxadiazol-2(3H)-one] | 0.118 |
| CCn1c2ccccc2c2cc(-c3nc4cc(C(=O)NS(=O)(=O)Cc5ncccc5C)ccc4n3CCOC)ccc21 [Example 68, 2-(9-Ethyl-9H-carbazol-3-yl)-1-(2-methoxyethyl)-N-{[(3-methylpyridin-2-yl)methyl]-sulphonyl}-1H-benzimidazole-5-carboxamide] | 0.0363 |

The remaining compounds from weak to strong by IC50, led by results:

| IC50 [µM] | SMILES |
| --- | --- |
| 2.86 | CCn1c2ccccc2c2cc(-c3nc4cc(C(=O)NC)ccc4n3C)ccc21 [Example 90, 2-(9-Ethyl-9H-carbazol-3-yl)-N,1-dimethyl-1H-benzimidazole-5-carboxamide] |
| 0.612 | CCn1c2ccccc2c2cc(-c3nc4cc(C(=O)O)c(C)cc4n3CCOC)ccc21 [Example 111, 2-(9-Ethyl-9H-carbazol-3-yl)-1-(2-methoxyethyl)-6-methyl-1H-benzimidazole-5-carboxylic acid] |
| 0.412 | CCOC(=O)c1ccc2c(c1)nc(-c1ccc3c(c1)c1ccccc1n3CCOC)n2CCOC [Example 97, Ethyl 1-(2-methoxyethyl)-2-[9-(2-methoxyethyl)-9H-carbazol-3-yl]-1H-benzimidazole-5-carboxylate] |
| 0.195 | CCn1c2ccccc2c2cc(-c3nc4cc(C(=O)O)ccc4n3C)ccc21 [Example 94, 2-(9-Ethyl-9H-carbazol-3-y1)-1-methyl-1 H-benzimidazole-5-carboxylic acid] |
| 0.143 | CCn1c2ccccc2c2cc(-c3nc4cc(C(=O)N(C)S(C)(=O)=O)ccc4n3CCOC)ccc21 [Example 84, 2-(9-Ethyl-9H-carbazol-3-yl)-1-(2-methoxyethyl)-N-methyl-N-(methylsulphonyl)-1H-benzimidazole-5-carboxamide] |
| 0.136 | CCn1c2ccccc2c2cc(-c3nc4cc(C(=O)O)ccc4n3C[C@@H](O)COC)ccc21 [Example 134, 2-(9-Ethyl-9H-carbazol-3-yl)-1-[(2R)-2-hydroxy-3-methoxypropyl]-1H-benzimidazole-5-carboxylic acid] |
| 0.0743 | CCn1c2ccccc2c2cc(-c3nc4cc(C(=O)NCCN5CCOCC5)ccc4n3CCOC)ccc21 [Example 78, 2-(9-Ethyl-9H-carbazol-3-yl)-1-(2-methoxyethyl)-N-[2-(morpholin-4-yl)ethyl]-1H-benzimidazole-5-carboxamide] |
| 0.0492 | CCn1c2ccccc2c2cc(-c3nc4cc(C(=O)NCC(F)(F)F)ccc4n3CCOC)ccc21 [Example 77, 2-(9-Ethyl-9H-carbazol-3-yl)-1-(2-methoxyethyl)-N-(2,2,2-trifluoroethyl)-1H-benzimidazole-5-carboxamide] |
| 0.0338 | O=C(O)c1ccc2c(c1)nc(-c1ccc3c(c1)c1ccccc1n3CC1CC1)n2CC1CC1 [Example 35, 1-(Cyclopropylmethyl)-2-[9-(cyclopropylmethyl)-9H-carbazol-3-yl]-1H-benzimidazole-5-carboxylic acid] |
| 0.0176 | CCn1c2ccccc2c2cc(-c3nc4cc(C(=O)NS(=O)(=O)c5ccccc5OC(F)(F)F)ccc4n3CCOC)ccc21 [Example 54, 2-(9-Ethyl-9H-carbazol-3-yl)-1-(2-methoxyethyl)-N-{[2-(trifluoromethoxy)phenyl]-sulphonyl}-1H-benzimidazole-5-carboxamide] |

Source: patent US9708311B2, “Benzimidazole derivatives as EP4 antagonists” (BAYER PHARMA AKTIENGESELLSCHAFT, priority 2012, dated 2017)
